The values below come from US9115151B2, “Substituted 2,10-dihydro-9-oxa-1,2,4A-triazaphenanthren-3-ones and uses thereof” (AbbVie Inc., priority 2012, dated 2015).

Where a name gives a salt, the structure may show the parent alone.

The target of one test is T1, PKCθ (Homo sapiens, UniProt Q04759).
T1 construct: His6; purchased Millipore; host or cells: baculovirus in Sf21 cells
Put plainly: In vitro enzyme assay (time-resolved fluorescence kinase assay), PKCθ, 100 μM ATP. It counts as biochemical. In a few lines:
(§1)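 Read-out was time-resolved fluorescence, corrected for a minus-enzyme blank and converted to percent activity relative to enzyme without drug. They were stopped with EDTA.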

The target of another test is T2, PKCα (Homo sapiens, UniProt P17252).
T2 construct: His6; purchased Millipore; host or cells: baculovirus in Sf21 cells
Kind of test: In vitro enzyme assay (time-resolved fluorescence kinase assay), PKCα, 100 μM ATP. The following applies: 100 μM ATP; read-out: PKCα enzyme IC50. It is filed as biochemical. In a few lines:
as §1

Test [1] deals with CD3/CD28 induced IL-2 in human T-Blasts. Kind of test: T-Blasts CD3/CD28 induced IL-2 assay. It is filed as cell-based. The note with it: read-out: CD3/CD28-stimulated IL2 in T-blasts EC50. An outline of the steps: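 IL-2 in supernatants read after 24 h 37° C stimulation of human PHA T-blasts (2×10^5/well) with anti-CD3/anti-CD28 at 5 μg/mL final. Duplicate eight-point, 1/3-step compound series added 30 min before stimulus; residual cells checked by MTT for toxicity.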

T1 sequence (Q04759 whole entry): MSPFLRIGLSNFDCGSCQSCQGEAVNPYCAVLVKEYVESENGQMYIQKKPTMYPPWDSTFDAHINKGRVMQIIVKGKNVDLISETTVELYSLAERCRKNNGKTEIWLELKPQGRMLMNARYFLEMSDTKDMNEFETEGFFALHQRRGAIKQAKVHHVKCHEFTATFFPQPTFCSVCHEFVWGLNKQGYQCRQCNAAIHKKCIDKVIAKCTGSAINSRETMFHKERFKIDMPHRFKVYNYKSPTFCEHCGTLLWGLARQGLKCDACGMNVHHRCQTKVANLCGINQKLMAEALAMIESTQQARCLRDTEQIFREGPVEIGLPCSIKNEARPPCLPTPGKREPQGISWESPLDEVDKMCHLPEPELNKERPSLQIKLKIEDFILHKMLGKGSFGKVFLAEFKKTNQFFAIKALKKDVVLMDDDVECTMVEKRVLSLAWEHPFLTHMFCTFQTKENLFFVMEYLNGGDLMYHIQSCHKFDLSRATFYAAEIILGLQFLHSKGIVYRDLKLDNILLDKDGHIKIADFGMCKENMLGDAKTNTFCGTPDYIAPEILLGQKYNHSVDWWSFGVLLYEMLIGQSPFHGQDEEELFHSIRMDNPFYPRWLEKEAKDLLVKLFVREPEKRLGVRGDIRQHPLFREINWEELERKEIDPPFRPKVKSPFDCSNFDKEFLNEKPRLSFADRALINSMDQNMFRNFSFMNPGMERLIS

Consider `C[C@@H]1C(=O)NN=C2COc3cc(-c4ccco4)c([C@@H](C)C4(C)CN(C)C4)cc3N21` [Example 136], for which the concentration for half-maximal inhibition (IC50) (usually the concentration needed to halve the response being measured) at PKCθ is less than 0.25 µM; at PKCα, 1 to 10 µM. The EC50 in test [1] is 0.25 to 1 µM.
As to `CC1C(=O)NN=C2COc3cc(C4CC4)c(C4CCNCC4)cc3N21` (stereo not drawn) [Example 77, 7-Cyclopropyl-4-methyl-6-piperidin-4-yl-2,10-dihydro-9-oxa-1,2,4a-triaza-phenanthren-3-one trifluoroacetic acid], the IC50 on PKCθ is less than 0.25 µM; on PKCα it was 1 to 10 µM. In test [1], the EC50 lay within 0.25 to 1 µM.
In the same order, the values of `C[C@@H]1C(=O)NN=C2COc3cc(-c4cccc(F)c4)c(NC4CNC4)cc3N21` [Example 6] are less than 0.25 µM, 1 to 10 µM and less than 0.25 µM.
Consider `Cc1ccc(-c2cc3c(cc2NC2CNC2)N2C(=NNC(=O)C2C)CO3)cc1` (racemic) [Example 29], for which the IC50 against PKCθ is less than 0.25 µM; at PKCα, 1 to 10 µM. The EC50 in test [1] is less than 0.25 µM.
On to `CC1C(=O)NN=C2COc3ccc(C4CCNC(Cc5ccccc5)C4)cc3N21` (stereo not drawn) [Example 86, 9-(2-Benzylpiperidin-4-yl)-1-methyl-3,5-dihydrobenzo[5,6][1,4]oxazino[3,4-c][1,2,4]triazin-2(1H)-one trifluoroacetic acid], for which the results for the IC50 against PKCθ and at PKCα were less than 0.25 µM and 1 to 10 µM, respectively. The EC50 in test [1] was less than 0.25 µM.
For `C[C@@H]1C(=O)NN=C2COc3cc(-c4ccccc4F)c(N4CCN[C@@H](C)C4)cc3N21` [Example 225], the IC50 is less than 0.25 µM at PKCθ and 0.25 to 1 µM at PKCα. Further, the EC50 in test [1] was less than 0.25 µM.
For `CC(C)c1cc2c(cc1C1CCN(C)CC1)N1C(=NNC(=O)[C@H]1C)CO2` [Example 219], the values for the IC50 at PKCθ and at PKCα were less than 0.25 µM and 1 to 10 µM, respectively. In addition, in test [1], the EC50 was less than 0.25 µM.
Turning to `C[C@@H]1C(=O)NN=C2COc3cc(-c4ccccc4F)c([C@@H](C)C4(C)CN(CCO)C4)cc3N21` [Example 141], the IC50 on PKCθ was less than 0.25 µM; on PKCα it was 0.25 to 1 µM. Also, the EC50 in test [1] is less than 0.25 µM.
For `CC(C)c1cc2c(cc1NC1CNC1)N1C(=NNC(=O)[C@@H]1C)CO2` (single isomer, unassigned) [Example 57-2, trifluoroacetic acid], the results for the half-inhibitory concentration (IC50) against PKCθ and on PKCα were 0.25 to 1 µM and 1 to 10 µM, respectively. Besides, the EC50 in test [1] lay within 1 to 10 µM.
As to `CC1C(=O)NN=C2COc3cc4ccn(C5CCCNC5)c4cc3N21` (stereo not drawn) [Example 152], the half-maximal inhibitory concentration (IC50) against PKCθ was less than 0.25 µM; on PKCα it was 1 to 10 µM. Besides, the EC50 in test [1] fell in the range of 0.25 to 1 µM.
The corresponding values for `C[C@@H]1C(=O)NN=C2COc3cc(-c4ccccc4F)c(N(C)C4(C)CN(C(=O)CN(C)C)C4)cc3N21` [Example 187] are less than 0.25 µM, 1 to 10 µM and 0.25 to 1 µM.
Consider `C[C@@H]1C(=O)NN=C2COc3cc(-c4ccccc4F)c(NC4CNC4)cc3N21` [Example 3], for which the values for the half-inhibitory concentration (IC50) at PKCθ and at PKCα were less than 0.25 µM and 1 to 10 µM, respectively. Also, the EC50 in test [1] was less than 0.25 µM.
With `CC1C(=O)NN=C2COc3cc(-c4ccc(F)cc4)c(N(C)C4(C)CN(C)C4)cc3N21` (stereo not drawn) [Example 168], the IC50 at PKCθ is less than 0.25 µM; at PKCα it was 0.25 to 1 µM. In addition, the EC50 in test [1] was less than 0.25 µM.
As for `C[C@H]1C(=O)NN=C2COc3cc(-c4ccccc4F)c(N(C)[C@]4(C)CCN(C)C4)cc3N21` (single isomer, unassigned) [Example 198-2], the IC50 on PKCθ was less than 0.25 µM; on PKCα it was 1 to 10 µM. Further, the EC50 in test [1] was in the range of 1 to 10 µM.
As to `CC[C@H]1CNCCN1c1cc2c(cc1-c1ccccc1F)OCC1=NNC(=O)[C@@H](C)N12` [Example 227], the IC50 at PKCθ is less than 0.25 µM; at PKCα, 1 to 10 µM. Further, in test [1], the EC50 is 0.25 to 1 µM.
In the same order, the values of `CC1C(=O)NN=C2COc3cc(Br)c(NC4CNC4)cc3N21` (stereo not drawn) [Example 85, 6-(Azetidin-3-ylamino)-7-bromo-4-methyl-2,10-dihydro-9-oxa-1,2,4a-triaza-phenanthren-3-one trifluoroacetic acid] are less than 0.25 µM, 1 to 10 µM and 0.25 to 1 µM.
In the same order, the values of `CC1C(=O)NN=C2CSc3ccc(NC4CNC4)cc3N21` (stereo not drawn) [Example 97, 6-(Azetidin-3-ylamino)-4-methyl-2,10-dihydro-9-thia-1,2,4a-triaza-phenanthren-3-one hydrochloric acid salt] are less than 0.25 µM, 1 to 10 µM and less than 0.25 µM.
With `Cc1ccc(F)c(-c2cc3c(cc2NC2CNC2)N2C(=NNC(=O)C2C)CO3)c1` (racemic) [Example 31], the results for the IC50 against PKCθ and on PKCα were less than 0.25 µM and 1 to 10 µM, respectively. Further, the EC50 in test [1] fell in the range of 0.25 to 1 µM.
Turning to `CC(C)c1cc2c(cc1C1CCNCC1)N1C(=NNC(=O)C1C)CO2` (stereo not drawn) [Example 76, 7-Isopropyl-4-methyl-6-piperidin-4-yl-2,10-dihydro-9-oxa-1,2,4a-triaza-phenanthren-3-one trifluoroacetic acid], the 50% inhibitory concentration (IC50) was in the range of 0.25 to 1 µM against PKCθ and 1 to 10 µM at PKCα. The EC50 in test [1] fell in the range of 0.25 to 1 µM.
With `CC(C)c1cc2c(cc1OC1CNC1)N1C(=NNC(=O)[C@H]1C)CO2` (single isomer, unassigned) [Example 96, trifluoroacetic acid], the IC50 on PKCθ is less than 0.25 µM; on PKCα it was 1 to 10 µM. Moreover, the EC50 in test [1] was less than 0.25 µM.
On to `C[C@@H]1C(=O)NN=C2COc3cc(-c4ccccc4F)c([C@@H](C)C4(C)CN(CC(C)(C)O)C4)cc3N21` [Example 143], for which the results for the half-maximal inhibitory concentration (IC50) on PKCθ and at PKCα were less than 0.25 µM and 0.25 to 1 µM, respectively. In addition, in test [1], the EC50 is less than 0.25 µM.
For the compound `CC(C)c1cc2c(cc1NC1CNC1)N1C(=NNC(=O)[C@H]1C)CO2` (single isomer, unassigned) [Example 57-1, trifluoroacetic acid], the IC50 against PKCθ is less than 0.25 µM; at PKCα, 1 to 10 µM. Besides, the EC50 in test [1] was less than 0.25 µM.
As to `C[C@@H]1C(=O)NN=C2COc3cc(-c4ccccc4F)c(N4CCN(C)[C@@H](C)C4)cc3N21` [Example 232], the IC50 was less than 0.25 µM against PKCθ and 0.25 to 1 µM at PKCα. In addition, the EC50 in test [1] was less than 0.25 µM.
Take `C[C@@H]1C(=O)NN=C2COc3cc(C4CC4)c(NC4CNC4)cc3N21` (single isomer, unassigned) [Example 64-1, trifluoroacetic acid]: the results for the IC50 against PKCθ and at PKCα were less than 0.25 µM and 1 to 10 µM, respectively. Also, the EC50 in test [1] is less than 0.25 µM.
As for `C[C@@H]1C(=O)NN=C2COc3cc(F)c(NC4CNC4)cc3N21` (single isomer, unassigned) [Example 56-2, trifluoroacetic acid], the IC50 was less than 0.25 µM on PKCθ and 1 to 10 µM on PKCα. In addition, the EC50 in test [1] is less than 0.25 µM.
With `Cc1cc(F)ccc1-c1cc2c(cc1NC1CNC1)N1C(=NNC(=O)C1C)CO2` (racemic) [Example 13], the IC50 against PKCθ was less than 0.25 µM; at PKCα, 1 to 10 µM. In addition, in test [1], the EC50 is less than 0.25 µM.
`COCCN1CC(C)(N(C)c2cc3c(cc2-c2ccccc2F)OCC2=NNC(=O)[C@@H](C)N23)C1` [Example 192]: the IC50 against PKCθ is less than 0.25 µM; at PKCα, 0.25 to 1 µM. Further, the EC50 in test [1] is less than 0.25 µM.
On to `CC(C)c1cc2c(cc1C1CCNCC1)N1C(=NNC(=O)[C@H]1C)CO2` [Example 208], for which the IC50 against PKCθ is less than 0.25 µM; on PKCα, 1 to 10 µM. Also, in test [1], the EC50 was less than 0.25 µM.
For `C[C@@H]1C(=O)NN=C2COc3cc(-c4ccccc4CO)c(N(C)C4(C)CN(C)C4)cc3N21` [Example 176], the IC50 against PKCθ is less than 0.25 µM; on PKCα it was 0.25 to 1 µM. Further, the EC50 in test [1] was less than 0.25 µM.
Consider `CC1C(=O)NN=C2COc3cc(C(F)(F)F)c(OC4(C)CNC4)cc3N21` (stereo not drawn) [Example 107, 4-Methyl-6-(3-methyl-azetidin-3-yloxy)-7-trifluoromethyl-2,10-dihydro-9-oxa-1,2,4a-triaza-phenanthren-3-one trifluoroacetic acid], for which the IC50 on PKCθ and at PKCα was less than 0.25 µM each time. For the same compound, the EC50 in test [1] is less than 0.25 µM.
For the compound `CC1C(=O)NN=C2COc3cc(-c4ccc(C(C)(C)C)cc4)c(NC4CNC4)cc3N21` (racemic) [Example 26], the IC50 at PKCθ is 0.25 to 1 µM; on PKCα, 1 to 10 µM. For the same compound, the EC50 in test [1] was less than 0.25 µM.
In the same order, the values of `C[C@@H]1C(=O)NN=C2COc3cc(-c4ccccc4F)c([C@@H]4CCNC4)cc3N21` [Example 215] are less than 0.25 µM, 1 to 10 µM and less than 0.25 µM.
With `CC1C(=O)NN=C2COc3cc(-c4ccccc4)c(OC4CNC4)cc3N21` (stereo not drawn) [Example 66], the IC50 is less than 0.25 µM against PKCθ and 1 to 10 µM at PKCα. In addition, the EC50 in test [1] was less than 0.25 µM.
Regarding `C[C@@H]1C(=O)NN=C2COc3cc([C@@H](C)C(F)(F)F)c(NC4CNC4)cc3N21` [Example 61], the IC50 at PKCθ was less than 0.25 µM; on PKCα, 1 to 10 µM. In addition, in test [1], the EC50 lay in the range of 0.25 to 1 µM.
The corresponding values for `Cc1cc2c(cc1NC1CN(C)C1)N1C(=NNC(=O)C1C)CO2` (stereo not drawn) [Example 125, 1,8-Dimethyl-9-((1-methylazetidin-3-yl)amino)-3,5-dihydrobenzo[5,6][1,4]oxazino[3,4-c][1,2,4]triazin-2(1H)-one trifluoroacetic acid] are less than 0.25 µM, 1 to 10 µM and 0.25 to 1 µM.
In the same order, the values of `CC1C(=O)NN=C2COc3cc(Nc4ccccc4)c(NC4CNC4)cc3N21` (stereo not drawn) [Example 128, 6-(Azetidin-3-ylamino)-4-methyl-7-phenylamino-2,10-dihydro-9-oxa-1,2,4a-triaza-phenanthren-3-one trifluoroacetic acid] are less than 0.25 µM, 1 to 10 µM and 0.25 to 1 µM.
